The text below walks through data of US20230050653A1, “ROCK INHIBITOR AND PREPARATION METHOD THEREFOR AND USE THEREOF” (WUHAN LL SCIENCE AND TECHNOLOGY DEVELOPMENT CO., LTD., priority 2019, published 2023).

In one data set the target is T1, ROCK1 kinase (Homo sapiens, UniProt Q13464).
T1 construct: purchased Invitrogen
Briefly: In vitro evaluation of ROCK1 kinase selectivity (HTRF KinEASE-STK time-resolved fluorometric assay). The format is biochemical. Summed up: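 Recombinant ROCK1 (0.4 ng/μL final) preincubated with compound (1% DMSO) for 0.5 h at room temperature in buffer with 5 mM MgCl2 and 1 mM DTT. Reaction started with ATP and biotinylated STK-substrate 2 (3.53 μM and 1 μM final), run 2 h at room temperature. HTRF detection with STK antibody-Cryptate/streptavidin-XL665 after about 1 h.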
For orientation: In TR-FRET formats the signal depends on donor and acceptor labels being close together.

A further data set has as its target T2, ROCK2 kinase (Homo sapiens, UniProt O75116).
T2 construct: purchased Invitrogen PV3759
Briefly: In vitro evaluation of ROCK2 kinase activity (HTRF KinEASE-STK time-resolved fluorometric assay). Type of data set: biochemical. The method, boiled down: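 ROCK2 (0.4 ng/μL final) was preincubated with compound (1% DMSO) for 0.5 h at room temperature in kinase buffer with 5 mM MgCl2, 1 mM DTT. Reaction with ATP 6.739 μM and STK-substrate 2-biotin 1 μM ran 2 h at room temperature; HTRF read-out after ~1 h detection.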

Data set [1] can be described thus: In vivo pharmacokinetic study in mice. To be noted: mouse, plasma. The text has this:
In Vivo Pharmacokinetic Study of Compounds Disclosed Herein in Mice SPF-grade mice (SPF (Beijing) Biotechnology Co., Ltd.) were fasted overnight (without water deprivation) after adaptive feeding, and then received the compound of the present disclosure by intragastrical administration and bolus injection at tail vein. After administration, plasma of mice was collected at specific time points, and the concentration of the compound in the plasma was detected by LC-MS/MS (AB SCIEX Qtrap4500). The PK parameters of the compounds were statistically analyzed and calculated (WinNonlin V5.2, Pharsight) to show the pharmacokinetic properties of the compounds in mice.

Data set [2] is described as follows: In vitro cytotoxicity assay in HepG2 cells, CCK-8 method. Particulars: human. Background: Tetrazolium assays rely on reduction of a dye to a coloured formazan, in cell work by metabolically active cells.
Protocol: In vitro cytotoxicity assay for the compounds disclosed herein was performed in HepG2 cells using the CCK-8 method. HepG2 cells (Beina Bio) in the logarithmic growth phase were collected, the concentration of cell suspension was adjusted, and then the cells were plated on a 96-well cell culture plate at 50,000 cells/well. The cells were then incubated overnight in a cell incubator (5%, 37° C.), and after 80-90% cell confluence was achieved, test compound at each concentration gradient or vehicle (DMSO) was added after medium change. The resulting mixture was incubated in the cell incubator (5%, 37° C.) for 48 h. After the treatment, the medium in the plate was discarded. The plate was washed twice with PBS, added with CCK-8 working solution (Beyotime) at 100 μL per well, and then incubated at 37° C. for 1.5 h in the dark. Absorbance at OD450 nm was measured for each well on a microplate reader, and CC50 value of each compound was analyzed and calculated.

SMILES strings stand for the structures. Some results are limits rather than exact numbers.

T2 sequence (O75116 whole entry): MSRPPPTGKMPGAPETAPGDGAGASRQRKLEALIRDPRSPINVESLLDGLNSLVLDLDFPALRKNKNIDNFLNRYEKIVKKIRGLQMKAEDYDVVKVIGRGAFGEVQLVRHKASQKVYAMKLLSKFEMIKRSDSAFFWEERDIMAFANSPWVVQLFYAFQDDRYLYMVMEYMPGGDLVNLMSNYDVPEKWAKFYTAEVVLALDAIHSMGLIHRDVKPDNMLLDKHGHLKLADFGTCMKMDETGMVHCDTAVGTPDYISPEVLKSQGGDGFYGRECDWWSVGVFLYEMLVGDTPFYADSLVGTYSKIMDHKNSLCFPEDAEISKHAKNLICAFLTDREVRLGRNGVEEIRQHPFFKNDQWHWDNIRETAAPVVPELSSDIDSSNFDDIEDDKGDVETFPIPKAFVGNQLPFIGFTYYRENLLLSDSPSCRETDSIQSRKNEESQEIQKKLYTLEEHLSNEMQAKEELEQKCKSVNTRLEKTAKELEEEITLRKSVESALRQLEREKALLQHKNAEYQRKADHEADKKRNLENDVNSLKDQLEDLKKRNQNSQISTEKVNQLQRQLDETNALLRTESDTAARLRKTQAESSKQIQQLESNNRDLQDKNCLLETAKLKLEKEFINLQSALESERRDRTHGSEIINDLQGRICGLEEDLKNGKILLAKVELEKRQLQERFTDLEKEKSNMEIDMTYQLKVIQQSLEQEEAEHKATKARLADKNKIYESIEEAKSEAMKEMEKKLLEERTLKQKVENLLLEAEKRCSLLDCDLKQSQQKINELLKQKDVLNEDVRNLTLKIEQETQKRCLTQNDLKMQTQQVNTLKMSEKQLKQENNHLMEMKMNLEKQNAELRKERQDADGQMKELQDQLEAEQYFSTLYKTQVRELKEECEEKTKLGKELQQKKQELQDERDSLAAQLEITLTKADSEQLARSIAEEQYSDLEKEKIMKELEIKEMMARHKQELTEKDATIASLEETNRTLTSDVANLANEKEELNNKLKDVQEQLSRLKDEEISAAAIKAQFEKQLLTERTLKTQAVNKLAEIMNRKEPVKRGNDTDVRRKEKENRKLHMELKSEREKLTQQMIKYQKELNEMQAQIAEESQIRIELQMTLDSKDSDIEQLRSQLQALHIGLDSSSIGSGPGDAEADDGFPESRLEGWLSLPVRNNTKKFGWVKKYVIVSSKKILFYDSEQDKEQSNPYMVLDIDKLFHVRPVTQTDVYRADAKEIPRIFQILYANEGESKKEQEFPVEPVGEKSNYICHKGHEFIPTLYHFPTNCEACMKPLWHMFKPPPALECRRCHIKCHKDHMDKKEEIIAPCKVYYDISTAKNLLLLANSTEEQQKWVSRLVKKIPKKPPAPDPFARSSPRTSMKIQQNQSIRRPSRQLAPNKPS
T1 sequence (Q13464 whole entry): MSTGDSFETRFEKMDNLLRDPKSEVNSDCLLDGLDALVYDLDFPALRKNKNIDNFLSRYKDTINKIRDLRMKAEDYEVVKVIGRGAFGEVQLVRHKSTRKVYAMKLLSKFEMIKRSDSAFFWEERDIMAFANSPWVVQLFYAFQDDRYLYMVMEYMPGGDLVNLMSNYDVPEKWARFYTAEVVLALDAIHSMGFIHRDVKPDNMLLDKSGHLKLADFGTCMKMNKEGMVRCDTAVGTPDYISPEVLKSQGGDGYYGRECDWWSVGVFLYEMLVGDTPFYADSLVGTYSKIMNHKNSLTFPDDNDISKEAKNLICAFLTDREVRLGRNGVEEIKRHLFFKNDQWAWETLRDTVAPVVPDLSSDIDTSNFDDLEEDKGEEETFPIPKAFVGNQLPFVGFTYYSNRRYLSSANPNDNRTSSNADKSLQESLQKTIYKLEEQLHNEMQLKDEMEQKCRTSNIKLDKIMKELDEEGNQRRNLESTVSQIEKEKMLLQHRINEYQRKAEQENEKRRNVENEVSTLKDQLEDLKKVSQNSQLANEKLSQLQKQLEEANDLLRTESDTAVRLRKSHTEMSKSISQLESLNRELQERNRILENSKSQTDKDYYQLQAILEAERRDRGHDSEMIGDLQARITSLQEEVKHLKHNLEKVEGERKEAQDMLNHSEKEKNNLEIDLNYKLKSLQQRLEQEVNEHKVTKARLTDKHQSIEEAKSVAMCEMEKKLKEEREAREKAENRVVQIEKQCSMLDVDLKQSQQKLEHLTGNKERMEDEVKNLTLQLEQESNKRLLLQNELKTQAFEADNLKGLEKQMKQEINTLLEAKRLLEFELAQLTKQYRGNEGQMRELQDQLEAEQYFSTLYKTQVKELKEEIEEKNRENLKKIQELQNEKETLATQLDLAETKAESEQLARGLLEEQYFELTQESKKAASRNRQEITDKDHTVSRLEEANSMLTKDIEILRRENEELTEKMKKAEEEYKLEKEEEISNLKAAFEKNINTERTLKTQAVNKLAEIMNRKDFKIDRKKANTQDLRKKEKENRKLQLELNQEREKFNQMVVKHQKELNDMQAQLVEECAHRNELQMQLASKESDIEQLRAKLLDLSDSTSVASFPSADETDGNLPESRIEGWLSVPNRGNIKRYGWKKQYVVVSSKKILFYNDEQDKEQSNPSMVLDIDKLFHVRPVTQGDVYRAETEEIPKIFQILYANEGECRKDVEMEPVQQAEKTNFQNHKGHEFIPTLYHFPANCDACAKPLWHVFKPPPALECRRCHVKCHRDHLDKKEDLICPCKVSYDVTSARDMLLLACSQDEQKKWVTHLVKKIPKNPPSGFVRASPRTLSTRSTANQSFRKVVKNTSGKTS

On to `COc1cc(F)cc(CNC(=O)N2CCc3cc(-c4cn[nH]c4)ccc3C2)c1` [Compound T201, N-(3-fluoro-5-methoxybenzyl)-6-(1H-pyrazol-4-yl)-3,4-dihydroisoquinoline-2(1H)-carboxamide], for which the IC50 lay within 500 to 5000 nM against ROCK1 kinase and 50 to 500 nM against ROCK2 kinase. Moreover, the bioavailability in data set [1] (3 mg/kg Po vs Iv) is 42.4%. Further, the AUC(0-t) in data set [1] (Iv, 3 mg/kg) worked out at 413 ng·h/mL; in data set [1] (Po, 3 mg/kg), 175 ng·h/mL. Also, the Cmax in data set [1] (Iv, 3 mg/kg) is 704 ng/mL; in data set [1] (Po, 3 mg/kg), 95.5 ng/mL.
Consider `COc1cc(F)cc(CNC(=O)N2CCc3cc(-c4cn[nH]c4)ccc32)c1` [Compound T202, N-(3-fluoro-5-methoxybenzyl)-5-(1H-pyrazol-4-yl)indoline-1-carboxamide], for which the IC50 against ROCK1 kinase and on ROCK2 kinase was at most 50 nM in each case. Further, in data set [1] (3 mg/kg Po vs Iv), the bioavailability came to 90.3%. Moreover, the AUC(0-t) is 1740 ng·h/mL in data set [1] (Iv, 3 mg/kg) and 1570 ng·h/mL in data set [1] (Po, 3 mg/kg). Also, the Cmax in data set [1] (Iv, 3 mg/kg) came out at 2340 ng/mL; in data set [1] (Po, 3 mg/kg), 807 ng/mL. In data set [2], this molecule displayed a CC50 at 48 h above 50000 nM.
In the case of `COc1cc(F)cc(C(=O)NC(=O)c2cn(C)c3cc(-c4cn[nH]c4)ccc23)c1` [Compound T203, 1-methyl-6-(1H-pyrazol-4-yl)-1H-indole-3-carboxylic acid-3-fluoro-5-methoxy-benzoylamide], the CC50 in the data set with HepG2 cells is above 50000 nM.
Turning to `COc1cc(F)cc(CNC(=O)N2CCCc3cc(-c4cn[nH]c4)ccc32)c1` [Compound T204, N-(3-fluoro-5-methoxybenzyl)-6-(1H-pyrazol-4-yl)-3,4-dihydroquinoline-1(2H)-carboxamide], the IC50 on ROCK1 kinase was 50 to 500 nM; against ROCK2 kinase, at most 50 nM. For the same molecule, in data set [2], the CC50 at 48 h was above 50000 nM.
In the case of `COc1cc(F)cc(CNC(=O)N2CCOc3cc(-c4cn[nH]c4)ccc32)c1` [Compound T205, N-(3-fluoro-5-methoxybenzyl)-7-(1H-pyrazol-4-yl)-2H-benzo[b][1,4]oxazine-4(3H)-carboxamide], the IC50 on ROCK1 kinase is 50 to 500 nM; against ROCK2 kinase, at most 50 nM. Besides, in data set [2], the CC50 at 48 h is above 50000 nM.
As for `COc1cc(F)cc(CNC(=O)c2ncn3cc(-c4cn[nH]c4)ccc23)c1` [Compound T238, N-(3-fluoro-5-methoxybenzyl)-6-(1H-pyrazol-4-yl)imidazo[1,5-a]pyridine-1-carboxamide], the IC50 on ROCK1 kinase and at ROCK2 kinase was at most 50 nM each time. The bioavailability in data set [1] (3.4 mg/kg Po vs Iv) came to 84.6%. Also, the AUC(0-t) turned out to be 10500 ng·h/mL in data set [1] (Iv, 3.4 mg/kg) and 8880 ng·h/mL in data set [1] (Po, 3.4 mg/kg). For the same molecule, the Cmax in data set [1] (Iv, 3.4 mg/kg) stood at 4940 ng/mL; in data set [1] (Po, 3.4 mg/kg) it was 2130 ng/mL.
As for `COc1cccc(CNC(=O)N2CCc3cc(-c4c[nH]nc4N)c(F)cc32)c1` [Compound T345, 5-(3-amino-1H-pyrazol-4-yl)-6-fluoro-N-(3-methoxybenzyl)indoline-1-carboxamide], the figures for the IC50 against ROCK1 kinase and against ROCK2 kinase were 50 to 500 nM and at most 50 nM, respectively. In data set [1] (1 mg/kg Po vs Iv), this molecule registered a bioavailability of 49.1%. Besides, the exposure AUC(0-t) in data set [1] (Iv, 1 mg/kg) is 1260 ng·h/mL; in data set [1] (Po, 1 mg/kg), 618 ng·h/mL. In addition, the Cmax in data set [1] (Iv, 1 mg/kg) turned out to be 977 ng/mL; in data set [1] (Po, 1 mg/kg), 322 ng/mL. In addition, the CC50 at 48 h in data set [2] is 40800 nM.
Consider `COc1cccc([C@@H](CO)NC(=O)N2CCc3cc(-c4cn[nH]c4)c(F)cc32)c1` [Compound T346], for which the IC50 against ROCK1 kinase and against ROCK2 kinase was at most 50 nM in each case. Further, half-maximal cytotoxicity in data set [2] (CC50 at 48 h) was put at 45000 nM.
For the molecule `COc1cc(F)cc(CNC(=O)c2ncn3cc(-c4cn[nH]c4F)ccc23)c1` [Compound T355, 6-(5-fluoro-1H-pyrazol-4-yl)-N-(3-fluoro-5-methoxybenzyl)imidazo[1,5-a]pyridine-1-carboxamide], the IC50 against ROCK1 kinase and against ROCK2 kinase was at most 50 nM throughout. Also, the 50% cytotoxic concentration (CC50) at 48 h in data set [2] is above 100000 nM.
With `O=C(NC1CCCC1)c1cccc([C@H](CO)NC(=O)N2CCc3cc(-c4cn[nH]c4)c(F)cc32)c1` [Compound T356-R, (R)-N-(1-(3-(cyclopentylcarbamoyl)phenyl)-2-hydroxyethyl)-6-fluoro-5-(1H-pyrazol-4-yl)indoline-1-carboxamide], the IC50 at ROCK1 kinase and against ROCK2 kinase was 50 to 500 nM in each case. The CC50 at 48 h in data set [2] was above 200000 nM.
As to `COc1cccc(CNC(=O)N2CCc3cc(-c4c[nH]nc4F)c(F)cc32)c1` [Compound T357, 6-fluoro-5-(3-fluoro-1H-pyrazol-4-yl)-N-(3-methoxybenzyl)indoline-1-carboxamide], the IC50 against ROCK1 kinase and against ROCK2 kinase was at most 50 nM throughout. For the same molecule, in data set [1] (1 mg/kg Po vs Iv), the bioavailability is 71.1%. The AUC(0-t) in data set [1] (Iv, 1 mg/kg) was found to be 1090 ng·h/mL; in data set [1] (Po, 1 mg/kg) it was 775 ng·h/mL. Besides, the Cmax in data set [1] (Iv, 1 mg/kg) was determined as 811 ng/mL; in data set [1] (Po, 1 mg/kg), 352 ng/mL. Also, the CC50 at 48 h in data set [2] was 96000 nM.
With `COc1cccc(CNC(=O)c2ncn3cc(-c4cn[nH]c4)ccc23)c1` [Compound T361, N-(3-methoxybenzyl)-6-(1H-pyrazol-4-yl)imidazo[1,5-a]pyridine-1-carboxamide], the IC50 at ROCK1 kinase was 50 to 500 nM; on ROCK2 kinase, at most 50 nM. In addition, the CC50 at 48 h in data set [2] is above 100000 nM.
On to `O=C(NCc1cccc(OCC2CC2)c1)N1CCc2cc(-c3c[nH]nc3F)c(F)cc21` [Compound T380, N-(3-(cyclopropylmethoxy)benzyl)-6-fluoro-5-(3-fluoro-1H-pyrazol-4-yl)indoline-1-carboxamide], for which the IC50 was 50 to 500 nM at ROCK1 kinase and at most 50 nM on ROCK2 kinase. The CC50 at 48 h in data set [2] came out at 35300 nM.
The like results for `COc1cc(CNC(=O)N2CCc3cc(-c4cn[nH]c4F)c(F)cc32)ccc1F` [Compound T384, 6-fluoro-5-(5-fluoro-1H-pyrazol-4-yl)-N-(4-fluoro-3-methoxybenzyl)indoline-1-carboxamide] were, in that order, at most 50 nM, at most 50 nM and above 100000 nM.
The like results for `COc1cc(F)cc(CNC(=O)N2CCc3cc(-c4c[nH]nc4N)c(F)cc32)c1` [Compound T385, 5-(3-amino-1H-pyrazol-4-yl)-6-fluoro-N-(3-fluoro-5-methoxybenzyl)indoline-1-carboxamide] were, in that order, 50 to 500 nM, at most 50 nM and above 100000 nM.
For `O=C(NCc1cc(F)cc(F)c1)N1CCc2cc(-c3cn[nH]c3F)c(F)cc21` [Compound T387, N-(3,5-difluorobenzyl)-6-fluoro-5-(5-fluoro-1H-pyrazol-4-yl)indoline-1-carboxamide], the IC50 at ROCK1 kinase and on ROCK2 kinase was at most 50 nM in each case. In data set [1] (1 mg/kg Po vs Iv), this molecule yielded a bioavailability of 82.8%. The AUC(0-t) in data set [1] (Iv, 1 mg/kg) amounted to 753 ng·h/mL; in data set [1] (Po, 1 mg/kg), 623 ng·h/mL. The Cmax in data set [1] (Iv, 1 mg/kg) turned out to be 492 ng/mL; in data set [1] (Po, 1 mg/kg) it was 188 ng/mL. Besides, the CC50 at 48 h in data set [2] is above 100000 nM.
Regarding `COc1cccc(CNC(=O)c2ncn3cc(-c4cn[nH]c4F)ccc23)c1` [Compound T391, 6-(5-fluoro-1H-pyrazol-4-yl)-N-(3-methoxybenzyl)imidazo (1,5-a)pyridine-1-carboxamide], the IC50 against ROCK1 kinase and against ROCK2 kinase was at most 50 nM in each case. In data set [2], this molecule gave a CC50 at 48 h above 100000 nM.

A word on the IC50: it is the point on the concentration scale where inhibition reaches its midpoint. A lower IC50 goes with greater potency. For orientation: bioavailability means dose-corrected exposure relative to a reference, in per cent. Low readings indicate poor availability, high ones good availability. In general, AUC(0-t) refers to exposure summed from dosing to a finite time, without extrapolation to infinity. Read a low AUC(0-t) as less exposure. For orientation: Cmax means the highest concentration seen after dosing. The term CC50 denotes the concentration giving 50% cytotoxicity.
